Tested on: Aβ42 production in H4 cells stably transfected with APP751 containing the Swedish mutation (H4 APP751 SWE clone 8.20)
Assay: Cellular assay for inhibition of Aβ1-42 production (H4 APP751 SWE clone 8.20)
Format: cell-based
Conditions: H4 APP751 SWE clone 8.20 cells, 19 h incubation; Table 5B, 6-heterocyclic thiazine examples
Method: Cellular Assays for Inhibition of Aβ1-40 and Aβ1-42 Production
H4 cells stably transfected with APP751 containing the Swedish mutation (H4 APP751 SWE clone 8.20, developed at BMS) were maintained in log phase through twice weekly passage at a 1:20 split. […] Following incubation for 19 h in 5% CO2 at 37° C., plates were briefly centrifuged (1000 rpm, 5 min). A 10 μl aliquot from each well was transferred to a second assay plate (Costar 3709) for Aβ40 measurements. Antibody cocktails were freshly prepared by dilution into 40 mM Tris-HCl (pH 7.4) with 0.2% BSA and added to assay plates. For Aβ42 measurements, antibodies specific for the Aβ42 neoepitope (565, developed at BMS; conjugated to the Wallac reagent (Perkin Elmer)) and the N-terminal sequence of Aβ peptide (26D6, developed at SIBIA; conjugated to APC (Perkin Elmer)) were mixed and 20 μl of the mixture was added to each well of the incubated cell plate yielding a final concentration of 0.8 ng/well 565 and 75 ng/well 26D6. For the Aβ40 measurements, antibodies specific for the Aβ40 neoepitope (TSD, developed at BMS; conjugated to the Wallac reagent (Perkin Elmer)) and 26D6 as described above were mixed and 20 μl of the mixture was added to the 10 μl aliquots which had been removed previously from the cell plate yielding a final concentration of 1.6 ng/well TSD and 17.5 ng/well 26D6. Assay plates containing antibodies were sealed with aluminum foil and incubated overnight at 4° C. Signal was determined using a Viewlux counter (Perkin Elmer) and IC50 values determined using curve fitting in CurveMaster (Excel Fit based).

SMILES	IC50 [nM]
COc1ncccc1-c1cc([C@]2(C)C[C@@H](c3c(C)noc3C)SC(N)=N2)c(F)cc1F [Example 56, (4S,6S)-4-(2,4-difluoro-5-(2-methoxypyridin-3-yl)phenyl)-6-(3,5-dimethylisoxazol-4-yl)-4-methyl-5,6-dihydro-4H-1,3-thiazin-2-amine]	670
COc1ncc(-c2cc([C@]3(C)C[C@@H](c4c(C)noc4C)SC(N)=N3)c(F)cc2F)cc1Cl [Example 57, (4S,6S)-4-(5-(5-chloro-6-methoxypyridin-3-yl)-2,4-difluorophenyl)-6-(3,5-dimethylisoxazol-4-yl)-4-methyl-5,6-dihydro-4H-1,3-thiazin-2-amine]	380
COc1ncc(-c2cc([C@]3(C)C[C@@H](c4c(C)noc4C)SC(N)=N3)c(F)cc2F)cn1 [Example 58, (4S,6S)-4-(2,4-difluoro-5-(2-methoxypyrimidin-5-yl)phenyl)-6-(3,5-dimethylisoxazol-4-yl)-4-methyl-5,6-dihydro-4H-1,3-thiazin-2-amine]	120
Cc1noc(C)c1[C@@H]1C[C@@](C)(c2cc(-c3cnccc3C(F)(F)F)c(F)cc2F)N=C(N)S1 [Example 59, (4S,6S)-4-(2,4-difluoro-5-(4-(trifluoromethyl)pyridin-3-yl)phenyl)-6-(3,5-dimethylisoxazol-4-yl)-4-methyl-5,6-dihydro-4H-1,3-thiazin-2-amine]	670
Cn1nccc1[C@@H]1C[C@@](C)(c2ccc(F)cc2F)N=C(N)S1 [Example 60, (4S,6S)-4-(2,4-difluorophenyl)-4-methyl-6-(1-methyl-1H-pyrazol-5-yl)-5,6-dihydro-4H-1,3-thiazin-2-amine]	330
Cc1nocc1[C@@H]1C[C@@](C)(c2ccc(F)cc2F)N=C(N)S1 [Example 61, (4S,6S)-4-(2,4-difluorophenyl)-4-methyl-6-(3-methylisoxazol-4-yl)-5,6-dihydro-4H-1,3-thiazin-2-amine]	300
C[C@@]1(c2ccc(F)cc2F)C[C@@H](c2cncnc2)SC(N)=N1 [Example 62, (4S,6S)-4-(2,4-difluorophenyl)-4-methyl-6-(pyrimidin-5-yl)-5,6-dihydro-4H-1,3-thiazin-2-amine]	310
